How the values were obtained:
[1] = test system: human breast cancer cells; experiment: Haptotactic migration of breast cancer cells towards fibronectin in a migration plate, migrated cells labeled with calcein-AM; format: cell-based; settings: for inhibition of migration, dose dependence: sublethal concentration
Experimental: (§1) After 18 hours, migrated cells were labeled with calcein-AM and fluorescence quantitated from the bottom. Nonmigrated cells were labeled with propidium iodide and fluorescence quantitated from the top. Estimation of 100% cell death was made by lysing cells in a test chamber with 1% Triton X-100 (TX 100) Error bars represent the standard deviation of 4-16 replicate test chambers. Asterisks represent a significant difference from migration without drugs (P<0.05). RFU=relative fluorescence units.
(§2) The cell suspension was added to the first chamber of a migration plate containing 96 chambers per plate at a concentration of about 80,000 cells per chamber. The migration plate used in this assay was manufactured by Polyfiltronics. Similar plates are available from Becton-Dickinson (U.S. Pat No. 5,801,055). The second chamber contained either haptotactic stimulus in the form of 20 μg/ml fibronectin or chemotactic in the form of 5% fetal calf serum. Cells were allowed to migrate in a humidified incubator at 37° C. and 5% carbon dioxide […].
(§3) During the last half hour of the incubation, calcein-AM (Molecular Probes, Eugene, Oreg.) was added to the second chamber to a final concentration of 5 μM and propidium iodide was added to the first chamber to a final concentration of 30 μM. At the end of the incubation the underside of the filters were washed twice in phosphate buffered saline. Fluorescence from each individual well chamber was measured from the bottom using 485 nm excitation and 530 nm emission filters.
(§4) Fluorescence from each individual well chamber was measured from the top using 560 nm excitation and 645 nm emission wavelength filters using a Tecan SpectraFluor fluorescent plate reader (Research Triangle Park NC). […] The asterisks represent a significant difference from positive control (p<0.05).

[2] = test system: human breast cancer cells; experiment: Chemotactic migration of breast cancer cells towards serum in a migration plate, migrated cells labeled with calcein-AM; format: cell-based; settings: highly metastatic breast cells; for inhibition at 20 µM: 20 μM drug
Experimental: as §1, §2, §3, §4

[3] = haptotactic and chemotactic migration
[4] = Homo sapiens, serum stimulus, read-out: inhibition of chemotaxis

With `NC(=O)c1nnn(Cc2cc(Cl)c(C(=O)c3ccc(Cl)cc3)c(Cl)c2)c1N` [CAI, carboxyamido-triazole] the inhibition of haptotaxis ([1]; 20 μM drug, fibronectin stimulus, highly metastatic breast cells) was “abolished haptotaxis”, the inhibition at 10 µM ([1]; Homo sapiens, 10 μM drug, fibronectin stimulus, highly metastatic breast cells, read-out: inhibition of haptotaxis) was 32% and the “effectiveness at halting migration, comparison of the two drugs” value [1, 3] was “more effective than tamoxifen at halting migration”. The “inhibition of migration, dose dependence” value [1, 3] was “inhibited migration in a dose-dependent manner at sublethal concentration”, the “haptotactic migration inhibition relative to concentrations causing cell death” value ([1]; highly metastatic breast cells, FIGS. 3A, 3B) was “inhibited at lower concentrations than those that cause cell death” and the inhibition at 10 µM ([2]; Homo sapiens, 10 μM drug, serum stimulus, read-out: inhibition of chemotaxis) was 7%. The inhibition at 20 µM [2, 4] was 42% and the “chemotactic migration inhibition relative to concentrations causing cell death” value ([2]; FIGS. 3A, 3B) was “inhibited at lower concentrations than those that cause cell death”.
`CC/C(=C(\c1ccccc1)c1ccc(OCCN(C)C)cc1)c1ccccc1` [tamoxifen] was tested, and the inhibition of haptotaxis ([1]; 10 μM drug, fibronectin stimulus, highly metastatic breast cells) was “non-significant inhibition”, the inhibition at 20 µM ([1]; Homo sapiens, 20 μM drug, fibronectin stimulus, highly metastatic breast cells, read-out: inhibition of haptotaxis) was 51% and the “inhibition of migration, dose dependence” value [1, 3] was “inhibited migration in a dose-dependent manner at sublethal concentration”. The inhibition of chemotaxis ([2]; 10 μM drug, serum stimulus) was “non-significant inhibition” and the inhibition at 20 µM [2, 4] was 9%.

Source: US6448030B1, “Method for predicting the efficacy of anti-cancer drugs” (University of Nevada-Las Vegas, priority 2000, dated 2002)
